Patent publication US20250122144A1, “Compound and Molded Body Comprising Same” (LG Chem, Ltd., priority 2022, published 2025)

Assay: Evaluation of heat resistance by thermogravimetric analyzer (TGA), primary thermal decomposition temperature
Format: physicochemical
Details: N2 atmospheric environment, FIG. 9
Method: In this experiment, the evaluation of heat resistance was defined as an extrapolated intersection point (primary thermal decomposition temperature) between a starting mass reference line and the tangent line of the maximum slope point in the first mass reduction section of a mass loss curve measured by a thermogravimetric analyzer (TGA) in an N2 atmospheric environment.
In the present disclosure, it is determined that when the primary thermal decomposition temperature of the compound has a value higher than the primary thermal decomposition temperature of the material before anion substitution, the heat resistance has increased.

Structure (SMILES)	Td (thermal decomposition temperature)	heat resistance compared with the material before anion substitution
C=C(C)C(=O)OCC[N+](C)(C)CCCCCCCCCC.[Br-] [Comparative Example 4-1]	about 230 °C	–
C=C(C)C(=O)OCC[N+](C)(C)CCCCCCCCCC.O=S(=O)([O-])O [Example 4-1]	–	heat resistance is improved
